From paper PMC10353187, “Discovery of a new potent oxindole multi-kinase inhibitor among a series of designed 3-alkenyl-oxindoles with ancillary carbonic anhydrase inhibitory activity as antiproliferative agents” (BMC Chemistry, 2023)

Experiments:
[1] = molecular target: hCA XII (Homo sapiens, UniProt O43570); assay: Stopped flow CO2 hydrase assay; details: for Selectivity ratio I/XII: Ki hCA I / Ki hCA XII; for Selectivity ratio II/XII: Ki hCA II / Ki hCA XII
[2] = molecular target: hCA II (Homo sapiens, UniProt P00918); assay: Stopped flow CO2 hydrase assay
[3] = molecular target: hCA I (Homo sapiens, UniProt P00915); assay: Stopped flow CO2 hydrase assay
hCA I, sequence (P00915 whole entry): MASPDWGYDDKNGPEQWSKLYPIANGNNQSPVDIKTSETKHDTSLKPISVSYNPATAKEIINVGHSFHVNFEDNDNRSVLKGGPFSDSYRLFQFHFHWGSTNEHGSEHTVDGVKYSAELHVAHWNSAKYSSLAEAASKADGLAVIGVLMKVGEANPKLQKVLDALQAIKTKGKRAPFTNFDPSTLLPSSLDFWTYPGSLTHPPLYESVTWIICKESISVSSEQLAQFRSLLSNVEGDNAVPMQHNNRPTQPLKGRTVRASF

[4] = molecular target: hCA IX (Homo sapiens, UniProt Q16790); assay: Stopped flow CO2 hydrase assay; details: for Selectivity ratio I/IX: Ki hCA I / Ki hCA IX; for Selectivity ratio II/IX: Ki hCA II / Ki hCA IX
[5] = tested on: UO-31; assay: NCI-60 single-dose antiproliferative assay (SRB); assay type: cell-based, human; details: Homo sapiens, UO-31, 10 μM single dose; UO-31, Renal cancer; read-out: Cell Growth inhibition Percent
Protocol: (§1) From the newly synthesized compounds, eleven compounds (4c, 4d, 5, 9a, 9b, 11a, 11b, 13b, 13c, 15b, and 15c) were selected by the National Cancer Institute (NCI) Developmental Therapeutics Program (DTP), Bethesda, Maryland, USA for the in vitro anti-proliferative activity evaluation. The selected compounds were examined at 10 μM dose against the NCI 60-cell line panel. This panel consists of nine cell line groups of leukemia, non-small cell lung carcinoma (NSCLC), melanoma, colon, CNS, ovarian, renal, prostate, and breast cancers. The results are reported as mean-graph of the percent growth relative to control and presented as percentage growth inhibition (GI%), furthermore, mean GI% of each compound over all panel cell lines was calculated (Table 1; Additional file 1; S3: In vitro biological activity).
(§2) From the newly synthesized compounds, eleven compounds were selected by the National Cancer Institute (NCI) Developmental Therapeutics Program (DTP), Bethesda, Maryland, USA for the in vitro anti-proliferative activity evaluation (For further details see supplementary materials).
(§3) NCI In-vitro Cancer Screening is a two-phase procedure that starts with the assessment of all compounds against the sixty NCI cell line panel depicting leukemia, NSCLC, CNS cancer, melanoma, prostate cancer, breast cancer, renal cancer, colon cancer and ovarian cancer cell lines at a single point of 10μM. The output from the single-dose screen is reportable as a mean graph.
(§4) The human tumor cell lines of the cancer screening panel were grown in RPMI 1640 medium containing 5% fetal bovine serum and 2 mM L-glutamine. For a typical screening experiment, cells were inoculated into 96 well microtiter plates in […] at plating densities ranging from 5000 to 40,000 cells/well depending on the doubling time of individual cell lines. After cell inoculation, the microtiter plates were incubated at 37 °C, 5% CO2, 95% air and 100% relative humidity for 24 h prior to addition of experimental drugs. After 24 h, two plates of each cell line were fixed in situ with trichloroacetic acid (TCA), to represent a measurement of the cell population for each cell line at the time of drug addition (Tz). Experimental drugs were solubilized in dimethyl sulfoxide at 400-fold the desired final maximum test concentration and stored frozen prior to use. At the time of drug addition, an aliquot of frozen concentrate was thawed and diluted to twice the desired final maximum test concentration with complete medium containing 50 µg/ml gentamicin. Aliquot of 100 µl of the drug dilution was added to the appropriate microtiter wells already containing 100 µl of medium, resulting in the required final drug concentration (10 µM). Triplicate wells were prepared for each individual dose. Following drug addition, the plates were incubated for an additional 48 h at 37 °C, 5% CO2, 95% air, and 100% relative humidity. For adherent cells, the assay was terminated by the addition of cold TCA. Cells were fixed in situ by the gentle addition of 50 µl of cold 50% (w/v) TCA (final concentration, 10% TCA) and incubated for 60 min at 4 °C. The supernatant was discarded, and the plates were washed five times with tap water and air dried. Sulforhodamine B (SRB) solution (100 µl) at 0.4% (w/v) in 1% acetic acid was added to each well, and plates were incubated for 10 min at room temperature. After staining, unbound dye was removed by washing five times with 1% acetic acid and the plates were air dried. Bound stain was subsequently solubilized with 10 mM trizma base, and the absorbance was read on an automated plate reader at a wavelength of 515 nm. For suspension cells, the methodology was the same except that the assay was terminated by fixing settled cells at the bottom of the wells by gently adding 50 µl of 80% TCA (final concentration, 16% TCA). […]

[6] = tested on: HOP-62; assay: NCI-60 single-dose antiproliferative assay (SRB); assay type: cell-based; details: Homo sapiens; 10 μM single dose; HOP-62, Non-small cell lung cancer; read-out: Cell Growth inhibition Percent
Protocol: as §1, §2, §3, §4

[7] = tested on: HOP-92; assay: NCI-60 single-dose antiproliferative assay (SRB); assay type: cell-based; details: Homo sapiens; 10 μM single dose; HOP-92, Non-small cell lung cancer; read-out: Cell Growth inhibition Percent
Protocol: as §1, §2, §3, §4

[8] = tested on: ACHN; assay: NCI-60 single-dose antiproliferative assay (SRB); assay type: cell-based; details: Homo sapiens, 10 μM single dose, Renal cancer, read-out: Cell Growth inhibition Percent
Protocol: as §1, §2, §3, §4

[9] = tested on: MCF7; assay: NCI-60 single-dose antiproliferative assay (SRB); assay type: cell-based; details: Homo sapiens; 10 μM single dose; MCF7, Breast cancer; read-out: Cell Growth inhibition Percent
Protocol: as §1, §2, §3, §4

[10] = tested on: CAKI-1; assay: NCI-60 single-dose antiproliferative assay (SRB); assay type: cell-based; details: Homo sapiens; 10 μM single dose; CAKI-1, Renal cancer; read-out: Cell Growth inhibition Percent
Protocol: as §1, §2, §3, §4

[11] = tested on: OVCAR-8; assay: NCI-60 single-dose antiproliferative assay (SRB); assay type: cell-based; details: Homo sapiens; 10 μM single dose; OVCAR-8, Ovarian Cancer; read-out: Cell Growth inhibition Percent
Protocol: as §1, §2, §3, §4

[12] = tested on: NCI-H522; assay: NCI-60 single-dose antiproliferative assay (SRB); assay type: cell-based; details: Homo sapiens; 10 μM single dose; NCI-H522, Non-small cell lung cancer; read-out: Cell Growth inhibition Percent
Protocol: as §1, §2, §3, §4

[13] = tested on: SNB-75; assay: NCI-60 single-dose antiproliferative assay (SRB); assay type: cell-based; details: Homo sapiens; 10 μM single dose; SNB-75, CNS cancer; read-out: Cell Growth inhibition Percent
Protocol: as §1, §2, §3, §4

[14] = tested on: T-47D; assay: NCI-60 single-dose antiproliferative assay (SRB); assay type: cell-based; details: Homo sapiens, T47D, 10 μM single dose, Breast cancer, read-out: Cell Growth inhibition Percent
Protocol: as §1, §2, §3, §4

[15] = tested on: KM12; assay: NCI-60 single-dose antiproliferative assay (SRB); assay type: cell-based; details: Homo sapiens; 10 μM single dose; KM12, Colon cancer; read-out: Cell Growth inhibition Percent
Protocol: as §1, §2, §3, §4

[16] = tested on: SR; assay: NCI-60 single-dose antiproliferative assay (SRB); assay type: cell-based; details: Homo sapiens, 10 μM single dose, Leukemia, read-out: Cell Growth inhibition Percent
Protocol: as §1, §2, §3, §4

[17] = tested on: NCI-H23; assay: NCI-60 single-dose antiproliferative assay (SRB); assay type: cell-based; details: Homo sapiens; 10 μM single dose; NCI-H23, Non-small cell lung cancer; read-out: Cell Growth inhibition Percent
Protocol: as §1, §2, §3, §4

[18] = tested on: PC-3; assay: NCI-60 single-dose antiproliferative assay (SRB); assay type: cell-based; details: Homo sapiens; 10 μM single dose; PC-3, Prostate cancer; read-out: Cell Growth inhibition Percent
Protocol: as §1, §2, §3, §4

[19] = tested on: NCI-H226; assay: NCI-60 single-dose antiproliferative assay (SRB); assay type: cell-based; details: Homo sapiens; 10 μM single dose; NCI-H226, Non-small cell lung cancer; read-out: Cell Growth inhibition Percent
Protocol: as §1, §2, §3, §4

[20] = tested on: EKVX; assay: NCI-60 single-dose antiproliferative assay (SRB); assay type: cell-based; details: Homo sapiens, 10 μM single dose, Non-small cell lung cancer, read-out: Cell Growth inhibition Percent
Protocol: as §1, §2, §3, §4

[21] = tested on: HCT-116; assay: NCI-60 single-dose antiproliferative assay (SRB); assay type: cell-based; details: Homo sapiens; 10 μM single dose; HCT-116, Colon cancer; read-out: Cell Growth inhibition Percent
Protocol: as §1, §2, §3, §4

[22] = tested on: SK-MEL-5; assay: NCI-60 single-dose antiproliferative assay (SRB); assay type: cell-based; details: Homo sapiens; 10 μM single dose; SK-MEL-5, Melanoma; read-out: Cell Growth inhibition Percent
Protocol: as §1, §2, §3, §4

[23] = tested on: SN12C; assay: NCI-60 single-dose antiproliferative assay (SRB); assay type: cell-based; details: Homo sapiens, 10 μM single dose, Renal cancer, read-out: Cell Growth inhibition Percent
Protocol: as §1, §2, §3, §4

[24] = tested on: HCT-15; assay: NCI-60 single-dose antiproliferative assay (SRB); assay type: cell-based; details: Homo sapiens; 10 μM single dose; HCT-15, Colon cancer; read-out: Cell Growth inhibition Percent
Protocol: as §1, §2, §3, §4

[25] = tested on: K-562; assay: NCI-60 single-dose antiproliferative assay (SRB); assay type: cell-based; details: Homo sapiens, K562; 10 μM single dose; K-562, Leukemia; read-out: Cell Growth inhibition Percent
Protocol: as §1, §2, §3, §4

[26] = Fig. 2; read-out: cytotoxicity average IC50; cited from earlier work
[27] = tested on: FGFRI; details: FGFR-1, inhibitor co-crystallized in PDB ID: 4V01; ref 5 (supplement); read-out: IC50; cited from earlier work

hCA XII, sequence (O43570 25-354): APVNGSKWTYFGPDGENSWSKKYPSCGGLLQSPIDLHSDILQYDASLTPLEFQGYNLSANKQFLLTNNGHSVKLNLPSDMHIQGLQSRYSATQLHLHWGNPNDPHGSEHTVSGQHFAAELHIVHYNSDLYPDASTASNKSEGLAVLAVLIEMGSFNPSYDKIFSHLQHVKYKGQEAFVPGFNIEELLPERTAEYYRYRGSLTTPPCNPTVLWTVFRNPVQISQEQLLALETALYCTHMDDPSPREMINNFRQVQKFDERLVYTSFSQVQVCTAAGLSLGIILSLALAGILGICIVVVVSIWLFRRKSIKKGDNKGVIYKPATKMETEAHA

Ki [1]	Ki [2]	Ki [3]	Ki [4]	melting point	Selectivity ratio I/XII [1]	Selectivity ratio II/XII [1]	Selectivity ratio I/IX [4]	Selectivity ratio II/IX [4]	Structure (SMILES)	further results
133 nM	5580 nM	6240 nM	941 nM	165 to 170 °C	46.89	41.97	6.63	5.93	NS(=O)(=O)OC=C1C(=O)Nc2ccccc21 [Compound 7, (2-Oxoindolin-3-ylidene)methyl sulfamate]	
> 10000 nM	> 10000 nM	> 10000 nM	> 10000 nM	> 300 °C					O=C1Nc2ccccc2C1=CNc1ccc(C(=O)Nc2nccs2)cc1 [Compound 9c, 4-{[(2-Oxoindolin-3-ylidene)methyl]amino}-N-(thiazol-2-yl)benzamide]	
175 nM	762 nM	845 nM	863 nM		4.83	4.36	0.98	0.88	NS(=O)(=O)c1ccc(NC(=O)Nc2ccc(NC=C3C(=O)Nc4ccccc43)cc2)cc1 [Compound 15a, 4-{3-[4-({[2-Oxoindolin-3-ylidene]methyl}amino)phenyl]ureido}benzenesulfonamide]	
> 10000 nM	> 10000 nM	> 10000 nM	> 10000 nM	> 300 °C					O=C(Nc1ccc(NC=C2C(=O)Nc3ccccc32)cc1)Nc1ccc(S(=O)(=O)Nc2ncccn2)cc1 [Compound 15b, 4-{3-[4-({[2-Oxoindolin-3-ylidene]methyl}amino)phenyl]ureido}-N-(pyrimidin-2-yl)benzenesulfonamide]	inhibition at 10 µM [5]: 18.3%; inhibition at 10 µM [14]: 7.81%; inhibition at 10 µM [15]: 49.1%; inhibition at 10 µM [16]: 3.55%; inhibition at 10 µM [17]: 72.8%; inhibition at 10 µM [18]: 5.91%; inhibition at 10 µM [6]: 1.01%; inhibition at 10 µM [7]: 5.79%; inhibition at 10 µM [19]: 3.3%; inhibition at 10 µM [9]: 15%; inhibition at 10 µM [10]: 5.21%; inhibition at 10 µM [20]: 1.92%; inhibition at 10 µM [21]: 7.3%; inhibition at 10 µM [22]: 0.02%; inhibition at 10 µM [12]: 4.97%; inhibition at 10 µM [13]: 1.02%; inhibition at 10 µM [23]: 1.23%; inhibition at 10 µM [24]: 2.59%; inhibition at 10 µM [25]: 2.05%

Continued, compound first:

Structure (SMILES)	Ki [1]	Ki [2]	Ki [3]	Ki [4]	melting point	Selectivity ratio I/XII [1]	Selectivity ratio II/XII [1]	Selectivity ratio I/IX [4]	Selectivity ratio II/IX [4]	further results
O=C1Nc2ccccc2C1=CNC1=NS(=O)(=O)c2ccccc21 [Compound 4a, 3-{[(1,1-Dioxidobenzo[d]isothiazol-3-yl)amino]methylene}indolin-2-one]	> 10000 nM	8950 nM	> 10000 nM	> 10000 nM	195 to 199 °C					
O=C1Nc2ccccc2C1=CNc1ccc(S(=O)(=O)Nc2ncccn2)cc1 [Compound 4b, 4-{[(2-Oxoindolin-3-ylidene)methyl]amino}-N-(pyrimidin-2-yl)benzenesulfonamide]	> 10000 nM	> 10000 nM	> 10000 nM	> 10000 nM	238 to 240 °C					
NS(=O)(=O)c1ccc(NC(=O)c2ccc(NC=C3C(=O)Nc4ccccc43)cc2)cc1 [Compound 9a, 4-{[(2-Oxoindolin-3-ylidene)methyl]amino}-N-(4-sulfamoylphenyl)benzamide]	59.4 nM	313 nM	332 nM	68.8 nM		5.59	5.27	4.83	4.55	inhibition at 10 µM [5]: 18%; inhibition at 10 µM [6]: 2.73%; inhibition at 10 µM [7]: 6.83%; inhibition at 10 µM [8]: 1.9%; inhibition at 10 µM [9]: 6.01%; inhibition at 10 µM [10]: 8.65%; inhibition at 10 µM [11]: 0.63%; inhibition at 10 µM [12]: 5.55%; inhibition at 10 µM [13]: 4.88%
O=C1Nc2ccccc2C1=CNc1ccc(CNc2nccs2)cc1 [Compound 11c, 3-{[(4-((Thiazol-2-ylamino)methyl)phenyl)amino]methylene}indolin-2-one]	> 10000 nM	> 10000 nM	> 10000 nM	> 10000 nM	150 to 153 °C					
NS(=O)(=O)c1ccc(NC=CC(=O)c2ccc(NC=C3C(=O)Nc4ccccc43)cc2)cc1 [Compound 13a, 4-{[-3-Oxo-3-(4-{[(-2-oxoindolin-3-ylidene)methyl]amino}phenyl)prop-1-en-1-yl]amino}benzenesulfonamide]	183 nM	307 nM	483 nM	91.3 nM	275 to 278 °C	2.64	1.68	5.29	3.36	
O=C1Nc2ccc(Cl)cc2/C1=N/Nc1nc(-c2ccccc2)cs1 [XIV]										IC50 [26]: 4660 nM
Cc1ccc(C(=O)Nc2ccc(CN3CCN(C)CC3)c(C(F)(F)F)c2)cc1C#Cc1cnc2cccnn12 [ponatinib]										IC50 [27]: 0.7 nM
